The results in this text go back to PubChem BioAssay AID330 (DTP/NCI, 2004).

The subject of the test is P388 leukemia ip, CD2F1 mice, survival T/C. Nature of the test: NCI In Vivo Anticancer Drug Screen. Data for tumor model P388 Leukemia (intraperitoneal) in CD2F1 (CDF1) mice. The conditions noted are these: endpoint: median survival time, higher = longer survival. The method, boiled down: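 Mice carrying the transplanted tumor received test compound or vehicle. Survival was recorded in each group, and the value is the treated-group measurement divided by that of the vehicle-treated control group.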

Setting [1] is: dose: 25.0 mg/kg/injection, schedule: Q01DX005 (ip), vehicle: Klucel (hydroxypropylcellulose) (HPC).
Where [2] appears, read: dose: 50.0 mg/kg/injection, schedule: Q01DX005 (ip), vehicle: Klucel (hydroxypropylcellulose) (HPC).
[3] abbreviates: dose: 100.0 mg/kg/injection, schedule: Q01DX005 (ip), vehicle: Klucel (hydroxypropylcellulose) (HPC).
Setting [4] is: dose: 200.0 mg/kg/injection, schedule: Q01DX005 (ip), vehicle: Klucel (hydroxypropylcellulose) (HPC).
The mark [5] stands for this setting: dose: 50.0 mg/kg/injection, schedule: Q01DX005 (ip), vehicle: saline with Tween-80.
The mark [6] stands for this setting: dose: 100.0 mg/kg/injection, schedule: Q01DX005 (ip), vehicle: saline with Tween-80.
The mark [7] stands for this setting: dose: 200.0 mg/kg/injection, schedule: Q01DX005 (ip), vehicle: saline with Tween-80.
[8] abbreviates: dose: 100.0 mg/kg/injection, schedule: Q04DX003 (ip), vehicle: saline with Tween-80.
[9] abbreviates: dose: 200.0 mg/kg/injection, schedule: Q04DX003 (ip), vehicle: saline with Tween-80.
Setting [10] is: dose: 12.5 mg/kg/injection, schedule: Q01DX005 (ip), vehicle: saline with Tween-80.
Setting [11] is: dose: 25.0 mg/kg/injection, schedule: Q01DX005 (ip), vehicle: saline with Tween-80.

Each structure is given as a SMILES string. “And” between values parts separate entries of the source, which are not always exact repeats. Equal entries are not always repeated. Toxic doses and inconclusive results are not listed.

As to `C=CC(=O)OCCCN(CCCC)CCCC`, the T/C was 100 % of control under setting [1], 95 % of control under setting [2], 105 % of control under setting [3] and 105 % of control under setting [4].
For `O=C1c2cc3c(cc2C(=O)c2ncccc21)CCCC3`, the T/C runs as follows: under setting [5], 98 % of control; under setting [6], 86 % of control; under setting [7], 89 % of control.
For `O=C(Nc1ccc(OCC2=NCCN2)cc1)c1ccc(C(=O)Nc2ccc(OCC3=NCCN3)cc2)cc1`, the T/C by setting is: under setting [5], 108 % of control; under setting [6], 103 % of control; under setting [7], 105 % of control.
For `O=C(O)C(=O)O.O=C(O)C(=O)O.OO.OO.[Nb]`, the T/C (dose: 12.5 mg/kg/injection, schedule: Q01DX009 (ip), vehicle: saline) was 98 % of control.
As to `CCCCCCOC(=O)c1ccccc1OP(=O)(N(C)C)N(C)C`, the T/C by setting is: (dose: 50.0 mg/kg/injection, schedule: Q01DX005 (ip), vehicle: saline) 98 % of control; (dose: 100.0 mg/kg/injection, schedule: Q01DX005 (ip), vehicle: saline) 101 % of control.
Turning to `[Cl][Pt+2][Cl].[NH-]c1cccc(F)c1.[NH-]c1cccc(F)c1`, the T/C reads like this: (dose: 3.12 mg/kg/injection, schedule: Q01DX009 (ip), vehicle: Klucel (hydroxypropylcellulose) (HPC)) 158 % of control; (dose: 6.25 mg/kg/injection, schedule: Q01DX009 (ip), vehicle: Klucel (hydroxypropylcellulose) (HPC)) 155 % of control.
As to `CC(/C=C/c1ccc(Cl)cc1)=N\NC(N)=S`, the T/C by setting is: (dose: 7.5 mg/kg/injection, schedule: Q01DX005 (ip), vehicle: saline with Tween-80) 100 % of control; (dose: 15.0 mg/kg/injection, schedule: Q01DX005 (ip), vehicle: saline with Tween-80) 120 % of control; (dose: 30.0 mg/kg/injection, schedule: Q01DX005 (ip), vehicle: saline with Tween-80) 124 % of control.
Take `Nc1nc(Nc2ccccc2)nc(-c2ccccc2)n1`: the T/C is, setting by setting: under setting [5], 100 % of control; under setting [6], 86 % of control.
For the compound `CCOc1ccc(/C=N/Nc2ccc([N+](=O)[O-])cc2)cc1OC`, the T/C runs as follows: under setting [8], 95 % of control; under setting [9], 90 % of control; (dose: 400.0 mg/kg/injection, schedule: Q04DX003 (ip), vehicle: saline with Tween-80) 90 % of control.
Take `CCC1=CCC2C(=O)c3cc4ccccc4cc3C(=O)C2C1` (stereo unspecified): the T/C was 103 % of control (dose: 6.25 mg/kg/injection, schedule: Q01DX005 (ip), vehicle: saline with Tween-80); 108 % of control under setting [10]; 108 % of control and 93 % of control under setting [11].
As to `S=C=NCCCCCCCCCCCCN=C=S`, the T/C is 112 % of control and 115 % of control (dose: 3.12 mg/kg/injection, schedule: Q01DX009 (ip), vehicle: saline with Tween-80); 106 % of control and 120 % of control (dose: 6.25 mg/kg/injection, schedule: Q01DX009 (ip), vehicle: saline with Tween-80).
As for `CCCCCCCCCCCC(=O)NN`, the T/C (dose: 50.0 mg/kg/injection, schedule: Q01DX009 (ip), vehicle: saline with Tween-80) is 95 % of control; the T/C under setting [8] was 100 % of control; the T/C under setting [9] was 100 % of control.
Regarding `C#CC(C)C(C(C)=O)C(=O)c1ccccc1.[C-]#[O+].[C-]#[O+].[C-]#[O+].[C-]#[O+].[C-]#[O+].[C-]#[O+].[Co].[Co]` (stereo unspecified), the T/C is, setting by setting: (dose: 12.5 mg/kg/injection, schedule: Q01DX005 (ip), vehicle: Klucel (hydroxypropylcellulose) (HPC)) 108 % of control; under setting [1], 101 % of control; under setting [2], 104 % of control and 95 % of control.
With `CCCNP1(NCCC)=NP(NCCC)(NCCC)=NP(NCCC)(NCCC)=NP(NCCC)(NCCC)=N1`, the T/C under setting [10] is 104 % of control; the T/C under setting [11] is 99 % of control; the T/C under setting [5] was 100 % of control and 104 % of control.
Take `COc1cccc(C)c1NC1=NCCO1`: the T/C is, setting by setting: (dose: 0.78 mg/kg/injection, schedule: Q04DX003 (ip), vehicle: saline with Tween-80) 100 % of control; (dose: 1.56 mg/kg/injection, schedule: Q04DX003 (ip), vehicle: saline with Tween-80) 100 % of control; (dose: 3.13 mg/kg/injection, schedule: Q04DX003 (ip), vehicle: saline with Tween-80) 104 % of control.
Take `CC1CC(=O)C2(C)C1CC1CCC2(C)OC1(C)C` (stereo unspecified): the T/C runs as follows: (dose: 100.0 mg/kg/injection, schedule: Q01DX009 (ip), vehicle: saline with Tween-80) 100 % of control; (dose: 200.0 mg/kg/injection, schedule: Q01DX009 (ip), vehicle: saline with Tween-80) 102 % of control; (dose: 400.0 mg/kg/injection, schedule: Q01DX009 (ip), vehicle: saline with Tween-80) 100 % of control.
For the compound `O=[N+]([O-])c1ccc(S(=O)(=O)Nc2ccc(-c3ccccc3)cc2)cc1`, the T/C reads like this: (dose: 100.0 mg/kg/injection, schedule: Q01DX009 (ip), vehicle: other) 105 % of control; (dose: 200.0 mg/kg/injection, schedule: Q01DX009 (ip), vehicle: other) 100 % of control; (dose: 400.0 mg/kg/injection, schedule: Q01DX009 (ip), vehicle: other) 100 % of control.
`Cc1ccc(N2CCN(CCCC3(c4ccccc4)OCCO3)CC2C)cc1Cl` (stereo unspecified): the T/C was 106 % of control and 97 % of control (dose: 50.0 mg/kg/injection, schedule: Q04DX003 (ip), vehicle: saline); 107 % of control under setting [8]; 100 % of control and 95 % of control (dose: 100.0 mg/kg/injection, schedule: Q04DX003 (ip), vehicle: saline); 117 % of control under setting [9]; 107 % of control and 97 % of control (dose: 200.0 mg/kg/injection, schedule: Q04DX003 (ip), vehicle: saline); 107 % of control and 97 % of control (dose: 400.0 mg/kg/injection, schedule: Q04DX003 (ip), vehicle: saline).
Consider `C1CCC(C2CCCC[N-]2)[N-]C1.[Cl][Ru+2][Cl]` (stereo unspecified), for which the T/C is, setting by setting: (dose: 7.5 mg/kg/injection, schedule: Q01DX005 (ip), vehicle: saline) 103 % of control; (dose: 15.0 mg/kg/injection, schedule: Q01DX005 (ip), vehicle: saline) 100 % of control; (dose: 30.0 mg/kg/injection, schedule: Q01DX005 (ip), vehicle: saline) 103 % of control.
Turning to `O=C(O)c1nn(Cc2ccc(Br)cc2Br)c2ccccc12`, the T/C is 114 % of control (dose: 100.0 mg/kg/injection, schedule: Q01DX001 (ip), vehicle: saline with Tween-80); 104 % of control (dose: 200.0 mg/kg/injection, schedule: Q01DX001 (ip), vehicle: saline with Tween-80); 114 % of control (dose: 400.0 mg/kg/injection, schedule: Q01DX001 (ip), vehicle: saline with Tween-80).
With `O=C1C2C=CC(c3ccccc32)N1/C=C/c1ccccc1` (stereo unspecified), the T/C by setting is: (dose: 100.0 mg/kg/injection, schedule: Q04DX003 (ip), vehicle: Klucel (hydroxypropylcellulose) (HPC)) 101 % of control; (dose: 200.0 mg/kg/injection, schedule: Q04DX003 (ip), vehicle: Klucel (hydroxypropylcellulose) (HPC)) 99 % of control; (dose: 400.0 mg/kg/injection, schedule: Q04DX003 (ip), vehicle: Klucel (hydroxypropylcellulose) (HPC)) 97 % of control.
For `CCOC(=O)NNC(=O)Nc1ccccc1F`, the T/C reads like this: (dose: 60.0 mg/kg/injection, schedule: Q01DX005 (ip), vehicle: saline with Tween-80) 108 % of control; (dose: 120.0 mg/kg/injection, schedule: Q01DX005 (ip), vehicle: saline with Tween-80) 96 % of control; (dose: 240.0 mg/kg/injection, schedule: Q01DX005 (ip), vehicle: saline with Tween-80) 99 % of control.
As to `CN(C)CCCN1C[C@H]2CC[C@@](C)(C1)C2(C)C`, the T/C under setting [5] is 105 % of control, the T/C under setting [6] was 107 % of control and the T/C under setting [7] was 105 % of control.
In the case of `Cn1nnc(-c2cccc(F)c2)n1`, the T/C by setting is: under setting [1], 105 % of control; under setting [2], 91 % of control and 96 % of control; under setting [3], 93 % of control; under setting [4], 91 % of control.
